The text below walks through data of patent US8268801B2 (priority 2007, dated 2012).

For the test, the system named is T cell clone Z4B27. Briefly: Antigen presentation assay: IFN-γ release by T cell clone Z4B27. The class given is cell-based. To be noted: CD1+ APC preincubated 2 h with sonicated antigen 1-10 μg/mL, 36 h, ELISA; FIG. 1; compared with unsulfated compound f and saturated comparative compound. As for the experimental part: The release of IFN-γ produced by T cell clone Z4B27 prepared in accordance with the method disclosed in WO 2004/092192 in response to stimulation by the compounds of the invention was measured.
CD1+APC were preincubated at 5×10^4 cells/well for 2 h at 37° C. with sonicated antigen (1-10 μg/mL) before addition of T cells (5×10^4/well in triplicate). After 36 h released TNF-α and IFN-γ were measured using sandwich ELISA kits (Instrumentation Laboratory). Data are expressed as mean ng/mL or pg/mL±SD of triplicates. All experiments were repeated at least 2 times.
A general note: In an ELISA, binding on a coated surface is turned into a signal by an enzyme label.

Take `CCCCCCCCCCCCCCCCC(C)CC(C)CC(C)C=C(C)C(=O)OC1C(O)C(CO)OC(OC2OC(CO)C(O)C(O)C2OS(=O)(=O)O)C1OC(=O)CCCCCCCCCCCCCCC` [compound e, 2′-O-Sulfate-2-O-hexadecanoyl-3-O-[(4S,6S,8S)-2,4,6,8-tetramethyltetracos-2-enoyl]-α,α′-D-trehalose]: the “IFN-γ produced by T cell clone Z4B27 in response to stimulation” value is recorded as “better activity”.
